Test results from patent publication JP2023117892A, “ヘプシジン結合ペプチド” (Public Interest Inc Foundation Oyokyo, priority 2022, dated 2023).
Each block holds one compound with its values, some of them ahead of it. Positions of bridges follow the written chain, without caps; N, C: chain ends. Residues, ends and D or L forms follow the SMILES beside them. No end group written: not given here.

What was measured:
[1] = system: renal anemia model mice (腎性貧血モデルマウス); assay: Effect of HBP in renal anemia model mice (adenine sulfate-induced renal failure); type: in vivo, mouse
[2] = system: human ferroportin fused to EGFP (FPN-EGFP) (ヒトのフェロポーチン(FPN)にEGFPを融合させたタンパク質); assay: Western blot of ferroportin (FPN-EGFP) in HEK293 cells treated with hepcidin; type: cell-based; settings: HEK293 expressing FPN-EGFP
[3] = system: HepG2 cells, human liver cancer-derived (ヒト肝癌由来細胞HepG2); assay: Intracellular iron (ferritin ELISA) in HepG2 cells treated with hepcidin; type: cell-based; settings: Fig. 7A
[4] = system: COS-1 cells, monkey kidney-derived fibroblasts (サル腎臓由来線維芽細胞(COS-1)); assay: Intracellular iron (ferritin ELISA) in FPN-EGFP-expressing COS-1 cells treated with hepcidin; type: cell-based; settings: COS-1 expressing FPN-EGFP, Fig. 7B
[5] = system: C57/BL6 mice (マウス(C57/BL6)); assay: Serum iron in mice given hepcidin; type: in vivo, mouse; settings: Fig. 7C
hepcidin (ヘプシジン) [6] = target: T1, hepcidin (ヘプシジン) (Homo sapiens, UniProt P81172); assay: Bio-layer interferometry (BLI) of the peptide on biotinylated hepcidin (Octet K2); type: binding; design: ビオチン化ヘプシジン(Bachem社製); purchased Bachem; settings: peptide 2.5, 4, 6, 8 or 10 μM
T1 sequence (P81172 60-84 limits assumed): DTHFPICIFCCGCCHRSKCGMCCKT

hepcidin (ヘプシジン) [7] = target: T1, hepcidin (ヘプシジン); assay: Binding of the 12-amino-acid peptide to hepcidin, linear versus cyclised
hepcidin (ヘプシジン) [8] = target: T1, hepcidin (ヘプシジン); assay: Phage display screening (Ph.D-12 library) on hepcidin-immobilised beads; type: binding; design: ビオチン化ヘプシジン(Bachem社製); purchased Bachem; settings: displayed on M13 phage pIII; most frequent sequence among 64 plaques after the 5th panning
[9] = AdS-induced renal anemia mice, HBP day 15 to day 21 (7 times), blood on day 22, versus control (PBS), Fig. 4C-E
[10] = peptide added simultaneously with hepcidin

Kd (hepcidin (ヘプシジン) [6]; biotinylated hepcidin on streptavidin sensor chip, read-out: dissociation constant): 29 nM | specific binding to hepcidin (hepcidin (ヘプシジン) [6]; Fig. 3): ヘプシジンに特異的に結合することが確認された
Compound: CSCC[C@@H]1NC(=O)[C@H](CO)NC(=O)[C@@H]2CCCN2C(=O)[C@H](Cc2c[nH]c3ccccc23)NC(=O)[C@H](CCSC)NC(=O)[C@H](CC(=O)O)NC(=O)[C@H](Cc2c[nH]c3ccccc23)NC(=O)[C@H](CO)NC(=O)[C@@H](NC(=O)[C@H](C)NC(C)=O)CSSC[C@@H](C(=O)NCC(N)=O)NC(=O)CNC(=O)[C@H](CCC(=O)O)NC(=O)[C@H](C)NC(=O)[C@H](CCCCN)NC(=O)[C@H](Cc2c[nH]c3ccccc23)NC(=O)[C@H](CC(=O)O)NC1=O [HBP, ACSWDMWPSMDWKAEGCG] (Ac-ACSWDMWPSMDWKAEGCG-NH2; disulfide 2-17)
hematocrit (HCt) [1, 9]: 有意に上昇した | hemoglobin (Hb) [1, 9]: 有意に上昇した | red blood cell count (RBC) [1, 9]: 有意に上昇した | blood biochemistry showing improvement of anemia and renal failure ([1]; AdS-induced renal failure mice, HBP day 15 to day 21, day 22, BUN, CRE, serum iron, TSAT, ferritin, CRP, hepcidin, EPO, Fig. 5A-H): 貧血の改善及び腎不全の改善を示す結果が確認された | amount of ferroportin (FPN-EGFP) ([2]; peptide added simultaneously with human hepcidin, Fig. 6 lanes 4 and 5): FPN-EGFP量の低下が抑制された | intracellular iron (as ferritin) [3, 10]: 細胞内鉄量の増加が抑制された | intracellular iron (as ferritin) [4, 10]: 細胞内鉄量の増加が抑制された | serum iron ([5]; peptide given simultaneously with hepcidin): 血中鉄量の減少が抑制された

Compound: ヘプシジン: human hepcidin (Peptide Institute, Inc.) (DTHFPICIFCCGCCHRSKCGMCCKT; ends and bridges not checked; cysteine pairing not given here; UniProt P81172 60-84, looked up) [reference compound]
amount of ferroportin (FPN-EGFP) ([2]; hepcidin added alone, Fig. 6 lane 3): フェロポーチンの量(FPN-EGFP量)は低下した | intracellular iron (as ferritin) ([3]; hepcidin alone): 細胞内の鉄量は増加した | intracellular iron (as ferritin) ([4]; hepcidin alone): 細胞内の鉄量は増加した | serum iron ([5]; hepcidin alone): 血中の鉄量は減少した

Compound: WDMWPSMDWKAE
binding to hepcidin (hepcidin (ヘプシジン) [7]; cyclised form): ヘプシジンに特異的に結合する | binding to hepcidin (hepcidin (ヘプシジン) [7]; linear form): 線状ではヘプシジンに結合しない | possibility of specific binding to hepcidin (hepcidin (ヘプシジン) [8]): ヘプシジンに特異的に結合する可能性が示された
